“And” between values parts separate entries of the source, which are not always exact repeats. Equal entries are not always repeated.
Legend:
[1] = USP Dissolution Apparatus Method 2 (in vitro dissolution); format: physicochemical; settings: 37° C.
Method: (§1) • Particle Size Analysis. […] Dissolution obtained using the following method is also referred to herein as “in vitro dissolution”. The dissolution media used varied with the drug substance, and is specified below. The dissolution media was heated to 37° C. and degassed. Dissolution was performed utilizing three vessels per experiment. 11 to 12 mg of drug particles prepared according to the present invention was added to each vessel for dissolution analysis. Dissolution samples were filtered automatically into test tubes containing 0.1 mL of acetonitrile, mixed with a vortex mixer, filtered and analyzed by HPLC. Samples were taken at 2, 5, 10, 15, 20, 30, 60, and 120 minutes. At the 60 min. point the agitation speed was increased to 200 rpm to ensures complete dissolution by 120 minutes. The 120 min. reading is the infinity time reading and the infinity time is used to calculate the potency. […] Crystallinity was determined by X-ray diffraction methods using a Bruker D-8 automated diffractometer. • Atmospheric Freeze Drying (ATMFD). ATMFD was one method of solvent removal used in the following examples. Heat transfer fluid was circulated through the circulating jacket of the heat exchanger, that was used to cool the drying gas then to the jacket of the ATMFD unit. Chilled nitrogen gas is flowed through the bottom of the ATMFD unit to sublime the solvent(s) away from the drug (s) and fluidizing the solids. The ATMFD unit and the nitrogen gas temperature are slowly warmed to ambient temperature. After the ATMFD portion of the process was complete the solid was collected from either the cyclone or the ATMFD Unit. • Freeze Drying. Freeze drying was an alternative solvent removal method used in some of the following examples. The frozen solution that was prepared was transferred to ajar cooled with dry ice. The processed solid in the chilled container was placed on a Virtis freeze dryer and dried for app. 12-24 hr at approximately 100 mtorr vacuum.

[2] = Particle size analysis (Beckman Coulter Counter) after redispersion in water; format: physicochemical; settings: bulk drug powder as received, redispersed in water
Method: as §1

[3] = deionized water containing 10.0 wt. % sodium chloride

Row | PSA of bulk drug [2] | Compound | other results
1 | 391.4 microns | NC(=O)N1c2ccccc2C=Cc2ccccc21 [Carbamazepine] | Dissolution of bulk drug after 2 minutes ([1]; deionized water containing 5.0 wt. % sodium chloride): 4.83 wt %
2 | 24.86 microns | C#C[C@]1(O)CC[C@H]2[C@@H]3CCC4=Cc5oncc5C[C@]4(C)[C@H]3CC[C@@]21C [Danazol] | Dissolution of bulk drug after 2 minutes ([1]; deionized water, 0.75 wt. % SLS, 1.21 wt. % Tris, pH 9): 56.42 wt %
3 | 17.07 microns | CC(=O)OCC(=O)[C@@]1(O)CC[C@H]2[C@@H]3CCC4=CC(=O)CC[C@]4(C)[C@H]3[C@@H](O)C[C@@]21C [Hydrocortisone Acetate] | Dissolution of bulk drug after 2 minutes ([1]; deionized water containing 0.3 wt. % SDS): 21.16 wt %
4 | 13.5 microns and 13.50 microns | CC(=O)N1CCN(c2ccc(OCC3COC(Cn4ccnc4)(c4ccc(Cl)cc4Cl)O3)cc2)CC1 (stereo not shown) [Ketoconazole] | Dissolution of bulk drug after 2 minutes ([1]; deionized water containing 0.5 wt. % SLS): 26.1 wt % and 26.10 wt %
5 | 42.73 microns | CC(C(=O)O)c1cccc(C(=O)c2ccccc2)c1 (stereo not shown) [Ketoprofen] | –
6 | 3.263 microns | C[C@]12C=CC(=O)C=C1CC[C@@H]1[C@@H]2C(=O)C[C@@]2(C)[C@H]1CC[C@]2(O)C(=O)CO [Prednisone] | Dissolution of bulk drug after 2 minutes [1, 3]: 0.97 wt %
7 | 7.707 microns | CC1(C)O[C@@H]2C[C@H]3[C@@H]4CCC5=CC(=O)C=C[C@]5(C)[C@@]4(F)[C@@H](O)C[C@]3(C)[C@]2(C(=O)CO)O1 [Triamcinalone Acetonide] | Dissolution of bulk drug after 2 minutes [1, 3]: 5.38 wt %

Source: patent publication US9175906B2, “Drug particles from freezing onto a surface” (BOARD OF REGENTS, THE UNIVERSITY OF TEXAS SYSTEM, priority 2003, dated 2015)
